Data reported in patent publication US20040171489A1, “Synergistic active compound combinations for controlling harmful plants” (priority 1998, published 2004).

Assays:
winter barley = test: Example 9 field trials, application 1-3 leaf stage broad-leaved weeds: crop damage; type: in vivo, Hordeum vulgare; conditions: 100 g of ai/ha; 120 to 160 days after application
Method: (§1) The herbicidal efficacy of the active compounds or active compound mixtures was scored visually using the treated plots in comparison to untreated control plots. The damage and development of all above-ground parts of the plants were recorded. Scoring was carried out using a percentage scale (100% effect=all plants killed; 50% effect=50% of the plants and the green parts of the plants killed; 0% effect=no noticeable effect=like control plot. The scores of in each case 4 plots were averaged.
(§2) If the observed activity values already exceed the formal sum of the values for the trials with the individual applications, they also exceed the expected value according to Colby which is calculated using the following formula and which is likewise considered to be an indication of synergism (cf. S. R. Colby; in Weeds 15 (1967) p. 20 to 22):
(§3) Crop plants were grown outdoors on plots under natural outdoor conditions, and seeds or rhizome pieces of typical harmful plants were laid out or the natural weed growth was utilized. Treatment with the compositions according to the invention was carried out after the harmful plants had emerged and the crop plants were, generally, at the 2- to 4-leaf stage; in some cases (as stated), application of individual active compounds or active compound combinations was carried out pre-emergence (cf. Section 1) or post-emergence (cf. Section 2) or as a sequential treatment partly pre-emergence and/or post-emergence. After the application, for example 2, 4, 6 and 8 weeks after the application, the effect of the preparations was scored visually by comparison with untreated controls (cf. scoring in Section 1). In the field trial as well, the compositions according to the invention have synergistic herbicidal activity against a broad spectrum of economically important weed grasses and broad-leaved weeds. […] Moreover, the effects in essential phases of the scoring period were above the expected values according to Colby, also indicating synergism. […]

Alopecurus myosuroides = test: Example 9 field trials, application 1-3 leaf stage broad-leaved weeds: herbicidal effect; type: in vivo; conditions: 100 g of ai/ha; 120 to 160 days after application
Method: as §1, §2
(§4) Crop plants were grown outdoors on plots under natural outdoor conditions, and seeds or rhizome pieces of typical harmful plants were laid out or the natural weed growth was utilized. Treatment with the compositions according to the invention was carried out after the harmful plants had emerged and the crop plants were, generally, at the 2- to 4-leaf stage; in some cases (as stated), application of individual active compounds or active compound combinations was carried out pre-emergence (cf. Section 1) or post-emergence (cf. Section 2) or as a sequential treatment partly pre-emergence and/or post-emergence. After the application, for example 2, 4, 6 and 8 weeks after the application, the effect of the preparations was scored visually by comparison with untreated controls (cf. scoring in Section 1). In the field trial as well, the compositions according to the invention have synergistic herbicidal activity against a broad spectrum of economically important weed grasses and broad-leaved weeds. […] Moreover, the effects in essential phases of the scoring period were above the expected values according to Colby, also indicating synergism. In contrast, the crop plants were, as a consequence of the treatments with the herbicidal compositions, damaged only to a small degree, if at all.

Capsella bursa-pastoris [1] = test: as above; type: in vivo; conditions: 100 g of ai/ha; 120 to 160 days after application
Method: as §1, §2, §4

Galium aparine [2] = test: Example 10 pre-emergence application, fall: herbicidal effect; type: in vivo; conditions: 169 days after application
Source text: (§5) Seeds or rhizome pieces of monocotyledonous and dicotyledonous weed plants are placed in sandy loam soil in pots and covered with soil. The compositions, formulated in the form of concentrated aqueous solutions, wettable powders or emulsion concentrates, are then applied to the surface of the soil cover as aqueous solution, suspension or emulsion at an application rate of 600 to 800 l of water/ha (converted), in various dosages. After the treatment, the pots are placed in a greenhouse and kept under good growth conditions for the weeds. After the test plants have emerged, the damage to the plants or the negative effects on the emergence is scored visually after a test period of 3 to 4 weeks by comparison with untreated controls. As shown by the test results, the compositions according to the invention have good herbicidal pre-emergence activity against a broad spectrum of weed grasses and broad-leaved weeds.
as §1, §2, §4

Capsella bursa-pastoris [3] = test: Example 11 field trial, 2- to 4-leaf stage: herbicidal effect; type: in vivo; conditions: 28 days after application
Method: as §1, §2, §4

winter wheat = test: Example 11 field trial, 2- to 4-leaf stage: crop damage; type: in vivo, Triticum aestivum; conditions: 28 days after application
Method: as §1, §2, §4

Sorghum verticilliflorum = test: Example 13 field trial, 2- to 4-leaf stage: herbicidal effect; type: in vivo; conditions: 17 days after application
Method: as §1, §2, §4

summer wheat = test: Example 14 field trial, 2- to 4-leaf stage: crop damage; type: in vivo, Triticum aestivum; conditions: 28 days after application
Method: (§6) The damage and development of all above-ground parts of the plants were recorded.
(§7) Crop plants were grown outdoors on plots under natural outdoor conditions, and seeds or rhizome pieces of typical harmful plants were laid out or the natural weed growth was utilized.

Lamium amolexicaule = test: Example 15 field trial, 2- to 4-leaf stage: herbicidal effect; type: in vivo; conditions: 28 days after application
Method: as §1, §2, §4

Anthemis arvensis = test: Example 16 field trial, post-emergence, 2- to 3-leaf stage: herbicidal effect; type: in vivo; conditions: 50 g of ai/ha; 69 days after application
Method: as §1, §2, §4

Galium aparine [4] = test: as above; type: in vivo; conditions: 50 g of ai/ha; 69 days after application
Method: as §1, §2, §4

Lamium ssp. = test: as above; type: in vivo; conditions: 50 g of ai/ha; 69 days after application
Method: as §1, §2, §4

Matricaria chamomilla = test: as above; type: in vivo; conditions: 50 g of ai/ha; 69 days after application
Method: as §1, §2, §4

Myosotis arvensis = test: as above; type: in vivo; conditions: 50 g of ai/ha; 69 days after application
Method: as §1, §2, §4

Papaver rhoeas = test: as above; type: in vivo; conditions: 50 g of ai/ha; 69 days after application
Method: as §1, §2, §4

Viola arvensis = test: as above; type: in vivo; conditions: 50 g of ai/ha; 69 days after application
Method: as §1, §2, §4

Ipomoea hederacea = test: Example 17 field trial, pre-emergence: herbicidal effect; type: in vivo; conditions: 16 days after application
Source text: as §5, §1, §2, §4

Setaria faberi = test: as above; type: in vivo; conditions: 16 days after application
Source text: as §5, §1, §2, §4

Elusine indica = test: Example 18 field trial, 3-leaf stage: herbicidal effect; type: in vivo; conditions: 100 g of ai/ha; 31 days after application
Method: as §1, §2, §3

[5] = system: corn which is glufosinate-ammonium-resistant; test: Example 18 field trial, 3-leaf stage: crop damage; type: in vivo, Corn (LL); conditions: 100 g of ai/ha; 31 days after application
Method: as §6, §7

Euphorbia heterophylla = test: Example 20 field trial, 3-leaf stage: herbicidal effect; type: in vivo; conditions: 31 days after application
Method: as §1, §2, §4

Oryza sativa (rice) [6] = test: Example 21 field trial, 4-leaf stage: crop damage; type: in vivo; conditions: 42 days after application
Method: as §1, §2, §3

Monochoria vaginalis = test: Example 22 field trial, 2-leaf stage: herbicidal effect; type: in vivo; conditions: 14 days after application
Method: as §1, §2, §4

Oryza sativa (rice) [7] = test: Example 22 field trial, 2-leaf stage: crop damage; type: in vivo; conditions: 14 days after application
Method: as §1, §2, §4

Q: What does the source list for `CC(C)(F)c1nc(N)nc(NC(CCc2ccccc2)C2CCC2)n1` (stereo not shown) [(A1), 4-amino-6-(1-fluoro-1-methylethyl)-2-(3-phenyl-1-cyclobutylpropylamino)-1,3,5-triazine]?
A: damage, HORVW (winter barley): 0%; herbicidal effect, ALOMY (Alopecurus myosuroides): 0%; herbicidal effect, CAPBP (Capsella bursa-pastoris [1]): 88%; herbicidal effect, GALAP (Galium aparine [2]; 50 g of ai/ha): 45%; herbicidal effect, GALAP (Galium aparine [2]; 100 g of ai/ha): 45%; herbicidal effect, CAPPBP (Capsella bursa-pastoris [3]; 25 g of ai/ha): 40%; herbicidal effect, CAPPBP (Capsella bursa-pastoris [3]; 50 g of ai/ha): 68%; herbicidal effect, CAPPBP (Capsella bursa-pastoris [3]; 75 g of ai/ha): 73%; herbicidal effect, CAPPBP (Capsella bursa-pastoris [3]; 100 g of ai/ha): 79%; damage, TRZAW (winter wheat; 25 g of ai/ha): 0%; damage, TRZAW (winter wheat; 50 g of ai/ha): 1%; damage, TRZAW (winter wheat; 75 g of ai/ha): 1%; damage, TRZAW (winter wheat; 100 g of ai/ha): 2%; herbicidal effect, SORVE (Sorghum verticilliflorum; 62.5 g of ai/ha): 35%; herbicidal effect, SORVE (Sorghum verticilliflorum; 125 g of ai/ha): 50%; damage, TRZAS (summer wheat; 25 g of ai/ha): 2%; damage, TRZAS (summer wheat; 50 g of ai/ha): 2%; damage, TRZAS (summer wheat; 100 g of ai/ha): 5%; herbicidal effect, LAMAM (Lamium amolexicaule; 25 g of ai/ha): 60%; herbicidal effect, LAMAM (Lamium amolexicaule; 50 g of ai/ha): 74%; herbicidal effect, LAMAM (Lamium amolexicaule; 100 g of ai/ha): 80%; herbicidal effect (%), ANTAR (Anthemis arvensis): 0%; herbicidal effect (%), GALAP (Galium aparine [4]): 66%; herbicidal effect (%), LAMSS (Lamium ssp.): 53%; herbicidal effect (%), MATCH (Matricaria chamomilla): 19%; herbicidal effect (%), MYOAR (Myosotis arvensis): 81%; herbicidal effect (%), PAPRH (Papaver rhoeas): 96%; herbicidal effect (%), VIOAR (Viola arvensis): 90%; herbicidal effect, IPOHE (Ipomoea hederacea; 50 g of ai/ha): 85%; herbicidal effect, IPOHE (Ipomoea hederacea; 100 g of ai/ha): 93%; herbicidal effect, SETFA (Setaria faberi; 50 g of ai/ha): 85%; herbicidal effect, SETFA (Setaria faberi; 100 g of ai/ha): 94%; herbicidal effect, ELEIN (Elusine indica): 0%; damage, Corn (LL) [5]: 0%; herbicidal effect, EPHHL (Euphorbia heterophylla; 25 g of ai/ha): 15%; herbicidal effect, EPHHL (Euphorbia heterophylla; 50 g of ai/ha): 50%; herbicidal effect, EPHHL (Euphorbia heterophylla; 100 g of ai/ha): 60%; damage, ORYSA (Oryza sativa (rice) [6]; 25 g of ai/ha): 0%; damage, ORYSA (Oryza sativa (rice) [6]; 50 g of ai/ha): 0%; damage, ORYSA (Oryza sativa (rice) [6]; 100 g of ai/ha): 0%; herbicidal effect, MOOVA (Monochoria vaginalis; 25 g of ai/ha): 3%; herbicidal effect, MOOVA (Monochoria vaginalis; 50 g of ai/ha): 90%; herbicidal effect, MOOVA (Monochoria vaginalis; 100 g of ai/ha): 95%; damage, ORYSA (Oryza sativa (rice) [7]; 25 g of ai/ha): 0%; damage, ORYSA (Oryza sativa (rice) [7]; 50 g of ai/ha): 10%; damage, ORYSA (Oryza sativa (rice) [7]; 100 g of ai/ha): 13%
